| melting point | SMILES |
| --- | --- |
| 118 to 119 °C | CCCCCCOc1ccc(NC(=O)c2cnc(C(=O)OC)c(OC)c2)cc1 |
| 97 °C | Cc1nc(-c2ccc(OCCCCCOc3ccc(C(=N)NO)cc3)cc2)c(C(C)C)s1 |
| 174 to 175 °C | COc1ccc2c(C)c(CCOS(C)(=O)=O)c(=O)oc2c1 |
| 117 °C | CCc1ccc(C#Cc2ccc(Br)cc2)cc1 |
| 134 to 136 °C | CCOC(=O)COc1cccc(-c2n[nH]c3c2Cc2ccccc2-3)c1 |
| 121 to 122 °C | O=C1N(C(c2ccccc2)c2ccccc2)c2c(F)cccc2C1(O)c1cc2c(cc1O)OCC2 (stereo not given) |
| 60 °C | OC1c2cc(OCc3ccc4ccccc4n3)ccc2OCC1Cc1c[nH]c2ccccc12 (stereo not given) |
| 172 to 175 °C | COc1ccc(CC(=O)Nc2c(-c3cc(Cl)ccc3O)c3cc(C(F)(F)F)ccc3[nH]c2=O)cc1 |
| 254 to 256 °C | COc1ccc(-c2cc3cc(F)c(F)cc3[nH]2)cc1NS(C)(=O)=O |
| 70 °C | C=CC(=O)OCCCOc1ccc(-c2ccc(C#N)cc2)cc1 |
| 52 °C | c1ccc2c(c1)ccc1cnsc12 |
| 265 to 268 °C | COc1cc2ncnc(Nc3cccc(Cl)c3F)c2cc1O |
| 170 to 172 °C | COc1ccc(CSc2cccnc2C(=O)O)cc1 |
| 224 to 228 °C | COc1cc2ncc(C#N)c(Nc3cccc(Br)c3)c2cc1OC |
| 263 to 265 °C | O=c1[nH]nc(Cl)cc1Nc1ccc(-c2ccncc2)nn1 |
| 187 to 188 °C | COc1ccc(-n2cnc3ccc(-c4nnc(SC)o4)cc32)cc1 |
| 262 to 265 °C | O=c1[nH]c2c(Cc3nnn[nH]3)c3ccccc3n2c2ccccc12 |
| 156 to 159 °C | CC(C)=C1Cc2ccc3nc(C)oc3c2C1=O |
| 201 °C | CC(C)(C)OC(=O)Nc1ccc(-c2ccccc2F)cc1NC(=O)CC(=O)c1ccc(C#N)s1 |
| 200 to 201 °C | Cc1c(NC(=O)c2ccc(CC(=O)C3CC3)cc2)ccc2cc(CN3CCCC3)cnc12 |
| 151 to 152 °C | CC(=O)c1ccc(S(=O)(=O)Nc2ccc(F)cn2)cc1 |
| 176 to 178 °C | CCc1c(-c2ccc(O)cc2)c2cc(COCCCN3CCCCC3)c3cccc1n32 |

| melting point | SMILES |
| --- | --- |
| 154 to 155 °C | NC(=O)c1cc(C(O)CNCCCn2nnc3ccccc32)ccc1O (stereo not given) |
| 209 to 211 °C | CC(C)(C)C(=O)OCN1C(=O)NC2(C1=O)C(=O)N(Cc1ccc(Cl)c(Cl)c1)c1ccccc12 (stereo not given) |
| 248 to 250 °C | O=c1[nH]c(=Cc2ccc(OCc3ccccc3)cn2)c(=O)[nH]c1=Cc1ccccn1 |
| 175 to 178 °C | COc1ccc2c(c1)c(CC(=O)O)c(C)n2-c1nc(SC)nc2ccccc12 |
| 182 to 183 °C | COC(=O)C1=C(c2cc(OC)c(OC)c(OC)c2)c2ccccc2S(=O)(=O)N1Cc1ccc2c(c1)OCO2 |
| 188 to 189 °C | COC(=O)c1ccc(-c2nc(-c3ccc(C(F)(F)F)cc3)no2)c(NC(=O)C(F)(F)F)c1 |
| 183 to 186 °C | Cc1ccc(N)cc1Nc1cc(-c2cccnc2)ccn1 |
| 228 °C | O=[N+]([O-])c1ccc2nc(Cl)nc(-c3ccccc3Cl)c2c1 |
| 233 to 236 °C | Cc1ccc(-c2cc3cc(C(=O)Nc4ccc(CN(C)C5CCOCC5)cc4)ccc3o2)cc1 |
| 102 °C | COc1ccccc1NC(=O)c1cccc(CO)c1 |
| 130 to 131 °C | OCc1csc(Nc2ccc(Oc3ccccc3)cn2)n1 |
| 265 to 266 °C | FC(F)Oc1ccc(-c2nnc(Nc3ccc(Cl)c(Cl)c3)s2)cc1 |
| 186 to 189 °C | N=C(N)c1ccc(O)c(C(=O)c2ccccc2)c1 |
| 120 to 121 °C | COc1ccc(CN2C(=O)C3(COc4cc5c(cc43)CCO5)c3ccccc32)cc1 (stereo not given) |
| 116 to 119 °C | CS(=O)(=O)c1ccc(-c2cnn(Cc3ccc4cc(F)ccc4n3)c(=O)c2-c2ccc(F)cc2)cc1 |
| 258 to 259 °C | CS(=O)(=O)c1ccc(S(=O)(=O)N2CCn3c(c(C(N)=O)c(Cl)c3-c3ccccc3)C2)cc1 |
| 155 to 161 °C | COc1cccc(CNc2nccc(-c3cc(N4CCN(CCCN(C)C5CCCCC5)CC4)c4cc(OC)ccc4c3)n2)c1 |
| 134 to 135 °C | CCCCCCCCCCCCCCCCn1nnc(C(C(=O)Nc2c(OC)cc(OC)cc2OC)c2ccccc2)n1 (stereo not given) |
| 116 to 118 °C | Cc1c(C(=O)Nc2ccc(OCC(C)(C)C)c(C#N)c2)cnn1-c1cccc(C(F)(F)F)c1 |
| 78 to 79 °C | Cc1ccc(-c2nc(COc3ccc(CCCn4ccnc4)cc3)cs2)s1 |
| 96.5 to 98.5 °C | COC(=O)CCc1ccc(OCC2CCN(c3ccncc3)CC2)cc1 |
| 108 to 110 °C | CC1(C)C=C(c2ncccn2)c2cc(C#N)ccc2O1 |

The remaining lines, values behind:

| SMILES | melting point |
| --- | --- |
| CC(=O)COC1CC2C3CCC4=CC(=O)C=CC4(C)C3(F)C(O)CC2(C)C1(O)C(=O)CCl (stereo not given) | 226 to 227 °C |
| COC(=O)C1Oc2ccccc2Cc2cccc(Cl)c2O1 (stereo not given) | 107 to 108 °C |
| O=C(COc1ccccc1)NC1CNC1=O (stereo not given) | 153 to 155 °C |
| CCCCc1ncc(C=C2C(=O)NC(=O)N2CCCC)n1Cc1ccccc1C(=O)O | 287 to 289 °C |
| C[C@@H](CO)CCn1c(C(=O)NCc2cc(C(F)(F)F)cc(C(F)(F)F)c2)c(-c2ccc(Cl)cc2)c2cccnc2c1=O | 259 to 261 °C |
| O=S(=O)(Cl)c1ccccc1CCl | 43 to 45 °C |
| O=[N+]([O-])c1ccccc1S | 40 to 42 °C |
| O=[N+]([O-])c1cc(Cl)cc2c1OC[C@H](CO)O2 | 83 to 88 °C |
| N#CCC(O)(Cn1cncn1)c1ccc(Cl)cc1Cl (stereo not given) | 217 to 219 °C |
| COC(=O)C1=C(C)NC(C)=C(C(=O)OCC2CCCO2)C1c1cccc(Cl)c1Cl (stereo not given) | 172 to 173 °C |
| O=C(O)Cn1nnnc1S | 110 to 111 °C |
| CCCNC(=O)c1nc2n(n1)-c1ccc(Cl)cc1C(c1ccccc1Cl)=NC2 | 110 to 113 °C |
| O=C(O)c1cn(C2CC2)c2cc(Cl)c(F)c(Cl)c2c1=O | 277 to 278 °C |
| O=[N+]([O-])c1ccc(F)c2ncccc12 | 132 to 133 °C |
| Cc1sc(C(N)=O)c2c1-c1nn(C)cc1CC2 | 276 to 277 °C |
| [O-][N+](=Cc1ccccc1)CCCCCC[N+]([O-])=Cc1ccccc1 | 105 °C |
| CC(=O)Nc1nc2n(n1)Cc1ccccc1-2 | 258 to 259 °C |
| Clc1cc(C(Cl)(Cl)Cl)c(Cl)cc1C(Cl)(Cl)Cl | 202 to 203 °C |
| NC(=O)N1C(=O)C(C(=O)c2ccc(Cl)s2)c2cc(Cl)ccc21 (stereo not given) | 220 to 222 °C |

| SMILES | melting point |
| --- | --- |
| CCNn1c(C)nc(N2CCc3ccccc3CC2)c(C#N)c1=O | 172 to 174 °C |
| COc1c(CC(=O)O)cccc1CC(=O)O | 184 to 186 °C |
| Clc1cc(Cl)c(Cl)nn1 | 57 to 58 °C |
| COC(C)c1cccc2oc(C(=O)O)c(C)c12 (stereo not given) | 113 to 115 °C |
| CC1CCCCC1NC(=O)C1=C(C(=O)Nc2cc(OC3CCCC3)c(Cl)cc2F)CCCC1 (stereo not given) | 192 to 195 °C |
| O=C1N(Cc2ccco2)c2ccccc2C12COc1cc3c(cc12)OCO3 (stereo not given) | 110 to 112 °C |
| O=C1CC2(CCCCC2)CN1O | 110 °C |
| CC(=O)NC[C@H]1CN(c2ccc(N3CCC(C#N)(Nc4ccc(C#N)cc4)CC3)c(F)c2)C(=O)O1 | 210 to 212 °C |
| CC1C=C2C(=CC=CC23NC(=O)NC3=O)O1 (stereo not given) | 234 to 236 °C |
| O=c1[nH]c(C2CCNCC2)nc2ccccc12 | 244 to 245 °C |
| CCOC(=O)CCc1cn(-c2ccc(N)cn2)nc1C(C)C | 75 to 76 °C |
| Fc1ccc(C23CNCC(CO2)O3)cc1 (stereo not given) | 89 °C |
| COc1ccc(C2(C=O)CCC(=O)CC2)cc1OC1CCCC1 | 55 to 57 °C |
| Nc1nc(SC2C=CCCC2)c2ncn(C3C=CC(CO)C3)c2n1 (stereo not given) | 138 to 140 °C |
| COCCC1(C(=O)N[C@@H](Cc2ccc(NC(=O)c3c(Cl)cccc3Cl)cc2)C(=O)O)CCCC1 | 136 to 140 °C |
| Cc1nc(N2CCN(CC3CC3)C2=O)sc1C(=O)NCc1ncccc1F | 142 to 144 °C |
| C#CCOC(=O)c1ccc(O)c(Cl)c1 | 144 to 145 °C |
| CN(C(=O)Cc1cccc2[nH]ccc12)C1c2ccccc2CC1N1CCCC1 (stereo not given) | 202 to 204 °C |
| O=C1C2CC(CN(Cc3ccccc3)C2)CN1Cc1ccccc1 (stereo not given) | 82.5 to 83.5 °C |

| SMILES | melting point |
| --- | --- |
| O=C(O)c1c(Oc2ccccc2)cccc1Oc1ccccc1 | 164 to 165 °C |
| C[Si]1(C)CCCCCCCCCC[Si](C)(C)O[Si](C)(C)CCCCCCCCCC[Si](C)(C)O1 | 90 °C |
| CCOC(=O)c1cc2cc(CC#N)ccc2o1 | 76 to 77 °C |
| Cn1cc(-c2cccc(N3CCc4c(cc5n4CCCC5)C3=O)c2CO)cc(Nc2ccc(C3CNC3)cn2)c1=O | 227 to 229 °C |
| CC1(C)OCc2cc(C(O)c3c[nH]cn3)ccc2O1 (stereo not given) | 96 °C |
| O=C1CCCCc2ccc([N+](=O)[O-])cc21 | 88 to 89 °C |
| COc1cc(C)c(C(=O)CCCCCCCCCCCO)c(O)c1OC | 82 °C |
| O=c1[nH]ccc2c1ccc1[nH]cc(CCN(Cc3ccccc3)Cc3ccccc3)c12 | 250 to 253 °C |
| CCOC(=O)c1cc(-c2cc(OC)cc(OC)c2)ns1 | 101 to 103 °C |
| Fc1ccc(Nc2ncnc3cnc(N4CCC(CCC5CCNCC5)CC4)nc23)cc1Cl | 112 to 114 °C |
| CCCCn1c(=O)c2c(NC)n[nH]c2n(CCOCc2ccccc2)c1=O | 214 to 216 °C |
| CC1(C)Oc2ccc(C#N)cc2[C@@H](NC(=NC#N)N2CCCC2)[C@@H]1O (relative stereo) | 263 to 264 °C |
| OCC1OC(n2c(Br)nc3c(NCc4ccccc4)ncnc32)C(O)C1O (stereo not given) | 96 to 98 °C |
| CN1CCNC(=O)C1c1ccc([N+](=O)[O-])cc1 (stereo not given) | 185 to 186 °C |
| c1ccc(CSc2cc(SCc3ccccc3)c3ccc4c(SCc5ccccc5)cc(SCc5ccccc5)c5ccc2c3c54)cc1 | 178 to 180 °C |
| COC(=O)C1=C(C)NC(C)=C(C(=O)NCCCN2CCN(c3ccccc3OC)CC2)C1c1cccc([N+](=O)[O-])c1 (stereo not given) | 70 to 80 °C |
| Cc1nc2sc([N+](=O)[O-])cc2c(=O)n1-c1ccc([N+](=O)[O-])cc1Cl | 166 to 168 °C |
| O=C1CC(c2ccccc2)(c2cccs2)Oc2ccccc21 (stereo not given) | 78 to 80 °C |

— a melting point compilation (Tetko et al.; mined from patent text by program, amines drawn as free bases though some values may be those of a salt)
